From patent publication US20020010207A1, “Tropane analogs and methods for inhibition of monoamine transport” (priority 2000, published 2002)
pIC50: −log10 of the molar value. Values joined by “and” are separate entries in the source; they are usually repeats but may differ in a detail not shown here. Equal entries are not always repeated. Where two headings read alike, the source gives them in different places.

What was measured:
[1] = molecular target: T1, dopamine transporter (DAT) (Macaca fascicularis, UniProt Q9GJT6); experiment: Dopamine transporter assay: inhibition of 3H-WIN35,428 binding, caudate-putamen membranes; parameters: species or system cynomolgus monkey (Macaca fascicularis); details: for Selectivity DAT V. SERT: ratio of SERT IC50 to DAT IC50
T1 construct: The caudate-putamen will be dissected from coronal slices; from tissue; host or cells: cynomolgus monkey caudate-putamen membranes

[2] = system: dopamine transporter (DAT); details: potency ratio versus (1S)-(+)-cocaine; cited from earlier work
[3] = molecular target: T2, serotonin transporter (SERT) (Macaca fascicularis, UniProt A7KAX8); experiment: Serotonin transporter assay: inhibition of 3H-citalopram binding, caudate-putamen membranes; parameters: species or system cynomolgus monkey (Macaca fascicularis)
T2 construct: The serotonin transporter is assayed in caudate-putamen membranes; from tissue; host or cells: cynomolgus monkey caudate-putamen membranes
Procedure: It is also important to measure the selectivity of the candidate of the dopamine compared with the serotonin transporter. The serotonin transporter is also detectable in the striatum, the brain region with the highest density of dopamine neurons and in brain regions surrounding the striatum. […] Therefore, a measure of probe affinity of the serotonin transport is conducted by assays paralleling the dopamine transporter assays.
Brain tissue from adult male and female cynomolgus monkeys (Macaca fascicularis) is stored at −85° C. in the primate -brain bank at the New England Regional Primate Research Center. […] Membranes are prepared as described previously. Briefly, the caudate-putamen is homogenized in 10 volumes (w/v) of ice-cold Tris.HCl buffer (50 mM, pH 7.4 at 4° C.) and centrifuged at […] for 20 min in the cold. The resulting pellet is suspended in 40 volumes of buffer, and the entire procedure is repeated twice.
The serotonin transporter is assayed in caudate-putamen membranes using conditions similar to those for the dopamine transporter. […] The 2 h incubation (0-4° C.) is initiated by addition of membranes and terminated by rapid filtration over Whatman GF/B glass fiber filters pre-soaked in 0.1% polyethyleneimine. The filters are washed twice with 5 ml Tris.HCl buffer (50 mM) and the remaining steps are carried out as described above. […] Specific binding is the difference between the two values.
Data are analyzed by EBDA and LIGAND computer software (Elsevier-Biosoft, UK) Final estimates of IC50 and nH values are computed by the EBDA program. Baseline values for the individual drugs are established by computer analysis using the baseline drugs as guide. The LIGAND program provides final parameter estimates of the novel compounds by iterative non-linear curve-fitting and evaluation of one- or two-component binding models.

[4] = Table 1, inhibition of 3H-WIN35,428 binding, cynomolgus monkey caudate-putamen, read-out: IC50 (nM DAT)
[5] = Table 1, inhibition of 3H-citalopram binding, cynomolgus monkey caudate-putamen, read-out: IC50 (nM SERT)

T1 sequence (Q9GJT6 whole entry): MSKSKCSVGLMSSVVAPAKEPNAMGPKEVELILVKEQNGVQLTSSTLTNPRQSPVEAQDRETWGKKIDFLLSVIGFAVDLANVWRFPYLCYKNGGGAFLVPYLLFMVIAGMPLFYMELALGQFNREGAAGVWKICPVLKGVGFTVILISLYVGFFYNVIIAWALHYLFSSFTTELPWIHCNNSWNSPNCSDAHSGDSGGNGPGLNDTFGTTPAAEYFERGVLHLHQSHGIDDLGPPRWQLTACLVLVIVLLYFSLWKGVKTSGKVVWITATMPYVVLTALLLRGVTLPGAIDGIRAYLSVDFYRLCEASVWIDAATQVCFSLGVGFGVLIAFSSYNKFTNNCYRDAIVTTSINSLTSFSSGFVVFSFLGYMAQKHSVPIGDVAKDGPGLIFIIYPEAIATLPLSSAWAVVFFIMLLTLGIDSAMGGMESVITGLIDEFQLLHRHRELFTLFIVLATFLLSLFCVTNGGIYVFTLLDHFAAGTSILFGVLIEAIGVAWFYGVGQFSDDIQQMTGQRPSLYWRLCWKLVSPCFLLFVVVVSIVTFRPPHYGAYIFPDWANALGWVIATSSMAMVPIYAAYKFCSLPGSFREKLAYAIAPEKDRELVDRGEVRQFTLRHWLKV
T2 sequence (A7KAX8 1-630): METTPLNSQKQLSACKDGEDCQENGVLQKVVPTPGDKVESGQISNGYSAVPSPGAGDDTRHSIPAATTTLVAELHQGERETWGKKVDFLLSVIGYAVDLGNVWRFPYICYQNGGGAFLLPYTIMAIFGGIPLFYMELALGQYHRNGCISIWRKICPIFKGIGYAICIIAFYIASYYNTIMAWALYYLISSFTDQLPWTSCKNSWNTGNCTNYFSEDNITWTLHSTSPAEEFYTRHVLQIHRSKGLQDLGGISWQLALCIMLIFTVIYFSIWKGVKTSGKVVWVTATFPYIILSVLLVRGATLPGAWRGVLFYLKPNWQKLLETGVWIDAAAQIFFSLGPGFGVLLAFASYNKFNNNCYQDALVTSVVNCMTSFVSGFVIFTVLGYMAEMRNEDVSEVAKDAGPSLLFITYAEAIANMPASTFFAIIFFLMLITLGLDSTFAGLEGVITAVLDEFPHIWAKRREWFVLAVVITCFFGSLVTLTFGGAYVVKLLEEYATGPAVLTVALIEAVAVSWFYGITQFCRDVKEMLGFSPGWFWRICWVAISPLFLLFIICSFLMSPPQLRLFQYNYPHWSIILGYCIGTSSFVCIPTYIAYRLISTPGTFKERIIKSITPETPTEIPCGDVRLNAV

Row | SMILES | Selectivity DAT V. SERT ([1]; Table 1) | IC50 [1, 4] [nM] | IC50 [3, 5] [nM] | further results
1 | COC(=O)[C@H]1[C@@H](c2ccc(Cl)c(Cl)c2)C[C@@H]2CC[C@H]1N2C [(1R)-3β-(3,4-di-chlorophenyl)-tropane-2β-carboxylic acid methyl ester, reference compound] | 2 |  |  | pIC50 [1]: 8.96
2 | COC(=O)[C@H]1[C@@H](OC(=O)c2ccccc2)C[C@@H]2CC[C@H]1N2C [(1R)-(−)-cocaine] |  |  |  | binds at the dopamine transporter more potently than the unnatural isomer (1S)-(+)-cocaine [2]: about 200 fold
3 | COC(=O)C1C(c2ccc(Cl)c(Cl)c2)CC2CC(O)C1N2 (stereo not drawn) [Compound 10, 2β-Carbomethoxy-3-(3,4-dichlorophenyl)-7-hydroxy-8-azabicyclo(3.2.1)octane] |  | 1 | 1450 | 
4 | COC(=O)C1C(c2ccc(Cl)c(Cl)c2)CC2CC(O)C1N2C (stereo not shown) [Compound 11] | 20 | 1 | 20 | 
5 | COC(=O)C1C(c2ccc(Cl)c(Cl)c2)CC2CC(OC)C1N2 (stereo not drawn) [Compound 14, 2β-carbomethoxy-3β-(3,4-dichlorophenyl)-7-methoxy-8-azabicyclo(3.2.1)octane] | 10 | 86 | 884 | 
6 | COC(=O)C1C(c2ccc(Cl)c(Cl)c2)CC2CC(OC)C1N2 (stereo not drawn) [Compound 15, 2β-Carbomethoxy-3-(3,4-dichlorophenyl)-7-methoxy-8-azabicyclo(3.2.1)octane] | 57 | 92 | 5220 | 
7 | COC(=O)C1=C(c2ccc(Cl)c(Cl)c2)CC2CC[C@H]1O2 [Compound 47e, (1R)-2-Carbomethoxy-3-(3,4-dichlorophenyl)-8-oxabicyclo(3.2.1)-2-octene] |  |  |  | IC50 ([1]; read-out: IC50 (nM) DAT): 4.6 nM; IC50 ([3]; read-out: IC50 (nM) SERT): 2120 nM
8 | COC(=O)C1=C(c2ccc(Cl)c(Cl)c2)CC2CC[C@@H]1O2 [Compound 47f, (1S)-2-Carbomethoxy-3-(3,4-dichlorophenyl)-8-oxabicyclo(3.2.1)-2-octene] |  |  |  | Selectivity DAT V. SERT ([1]; Table 2, 2,3-enes): 800 and 802; IC50 ([1]; read-out: IC50 (nM) DAT): 58.2 nM; IC50 ([3]; read-out: IC50 (nM) SERT): 46700 nM
9 | COC(=O)C1=C(c2ccc(Cl)c(Cl)c2)CC2CCC1N2C (stereo not shown) [Compound 48] |  |  |  | pIC50 [1]: 8.96; Selectivity DAT V. SERT ([1]; Table 2, 2,3-enes): 790; pIC50 [3]: 6.06
